Laboratory results as given in US8735601B2, “Pentamethine cyanine fluorescent dye with N-substituting at β-position of conjugated chain” (Dalian University of Technology, priority 2010, dated 2014).

Tests used:
[1] = Absorption and emission spectra of dyes in different solvents; assay type: physicochemical; parameters: key to Δλ1 / Δλ2: Stokes shift in nm; ε1 (molar extinction coefficient) / ε2 (molar extinction coefficient): scale not given here; settings: for Δλ1: Stokes shift to absorption peak 1; for Δλ2: Stokes shift to absorption peak 2
Source text: In the present invention, compounds IIa to IIg were synthesized based on compound II, and their spectral properties were investigated. Compared with the traditional pentamethine cyanine dye, for the novel pentamethine cyanine dye with N-substituting at β-position (deviated position), it was observed that, evident blue shift of absorption and emission wavelengths occurred, absorption wavelength blue shifted even largely than that of emission wavelength, absorption spectrum and fluorescence spectrum were no longer mirror-symmetric and had two absorption peaks and a single emission peak, and larger Stokes shift (minimum 60 and 150 nm, and maximum 90 and 230 nm) appeared.

[2] = Measurement of fluorescence quantum yield (Rhodamine B in ethanol as reference); assay type: physicochemical

SMILES: CCN1/C(=C/C=C/C(=C/C2=[N+](CC)c3ccccc3C2(C)C)NCc2ccccc2)C(C)(C)c2ccccc21 [Dye IIe]
- Δλ1 ([1]; solvent DCM): 81
- Δλ1 ([1]; solvent DMSO): 92
- Δλ1 ([1]; solvent Ethanol): 89
- Δλ1 ([1]; solvent Methanol): 88
- Δλ1 ([1]; solvent THF): 86
- Δλ1 ([1]; solvent Water): 101
- Δλ2 ([1]; solvent DCM): 185
- Δλ2 ([1]; solvent DMSO): 174
- Δλ2 ([1]; solvent Ethanol): 179
- Δλ2 ([1]; solvent Methanol): 174
- Δλ2 ([1]; solvent THF): 170
- Δλ2 ([1]; solvent Water): 188
- ε1 (molar extinction coefficient) ([1]; solvent DCM): 2.8 cm^−1M
- ε2 (molar extinction coefficient) ([1]; solvent DCM): 2.1 cm^−1M
- λabs1 ([1]; solvent DCM): 522 nm
- λbs2 ([1]; solvent DCM): 418 nm
- λem ([1]; solvent DCM): 603 nm
- ε1 (molar extinction coefficient) ([1]; solvent DMSO): 2.6 cm^−1M
- ε2 (molar extinction coefficient) ([1]; solvent DMSO): 2.3 cm^−1M
- λabs1 ([1]; solvent DMSO): 515 nm
- λbs2 ([1]; solvent DMSO): 433 nm
- λem ([1]; solvent DMSO): 607 nm
- ε1 (molar extinction coefficient) ([1]; solvent Ethanol): 2.8 cm^−1M
- ε2 (molar extinction coefficient) ([1]; solvent Ethanol): 2.3 cm^−1M
- λabs1 ([1]; solvent Ethanol): 519 nm
- λbs2 ([1]; solvent Ethanol): 429 nm
- λem ([1]; solvent Ethanol): 608 nm
- ε1 (molar extinction coefficient) ([1]; solvent Methanol): 2.7 cm^−1M
- ε2 (molar extinction coefficient) ([1]; solvent Methanol): 2.2 cm^−1M
- λabs1 ([1]; solvent Methanol): 517 nm
- λbs2 ([1]; solvent Methanol): 431 nm
- λem ([1]; solvent Methanol): 605 nm
- ε1 (molar extinction coefficient) ([1]; solvent THF): 2.9 cm^−1M
- ε2 (molar extinction coefficient) ([1]; solvent THF): 2.2 cm^−1M
- λabs1 ([1]; solvent THF): 510 nm
- λbs2 ([1]; solvent THF): 426 nm
- λem ([1]; solvent THF): 596 nm
- ε1 (molar extinction coefficient) ([1]; solvent Water): 2.3 cm^−1M
- ε2 (molar extinction coefficient) ([1]; solvent Water): 1.9 cm^−1M
- λabs1 ([1]; solvent Water): 516 nm
- λbs2 ([1]; solvent Water): 429 nm
- λem ([1]; solvent Water): 617 nm
- Φ1 (fluorescence quantum yield) ([2]; solvent DCM): 0.106
- Φ2 (fluorescence quantum yield) ([2]; solvent DCM): 0.075
- Φ1 (fluorescence quantum yield) ([2]; solvent DMSO): 0.009
- Φ2 (fluorescence quantum yield) ([2]; solvent DMSO): 0.008
- Φ1 (fluorescence quantum yield) ([2]; solvent Ethanol): 0.019
- Φ2 (fluorescence quantum yield) ([2]; solvent Ethanol): 0.017
- Φ1 (fluorescence quantum yield) ([2]; solvent Methanol): 0.008
- Φ2 (fluorescence quantum yield) ([2]; solvent Methanol): 0.007
- Φ1 (fluorescence quantum yield) ([2]; solvent THF): 0.085
- Φ2 (fluorescence quantum yield) ([2]; solvent THF): 0.075
- Φ1 (fluorescence quantum yield) ([2]; solvent Water): 0.003
- Φ2 (fluorescence quantum yield) ([2]; solvent Water): 0.001
